Where “and” joins values, the source holds several entries; their conditions need not be identical. Equal entries are not always repeated.

A word on the MIC: it is the lowest concentration that inhibits growth of the organism.

Test in all cases: MIC by two-fold serial broth dilution, alone and in combination (Example 1)
Common to all, as to type: cell-based
(In general: Dilution methods test growth across graded concentrations, often in twofold steps.)

The test system of experiment [1] is Streptococcus faecalis. On the procedure:
(§1) The MIC (minimum inhibitory concentration) of phosphonomycin and each of the other antibiotics by itself was determined before the combination synergy experiment was begun, as follows: 2 ml. of a double strength solution in sterile distilled water of the highest strength to be tested (usually 1000γ) was added to a tube of double strength nutrient broth (NB) and mixed thoroughly. Two-fold serial dilutions were then made by transferring 2 ml. to the next tube (1 × NB) and so on for approximately 12 tubes. The tubes were inoculated with one drop each of a 1:50 dilution of a culture adjusted to a Lumetron 60 reading in NB + 0.2% yeast extract so as to provide a concentration of cells of approximately 25,000/ml. The tubes were then incubated at 37°C. and examined for growth at 24, 48 and 72 hours.
(§2) In the combination experiment, the MIC value obtained as described above was used as approximately the midpoint of the range to be tested for each of the two antibiotics of the combination. In a manner similar to the above, two-fold dilutions of the first substance in the combination were made except that 1.8 ml. volumes were used and a 2.2 × strength solution of both the antibiotic and the NB were made. The second antibiotic of the combination was added to duplicate rows of serial dilutions of the first substance as follows: 0.2 ml. in NB of a [formula] and a [formula] respectively, of the second substance was added to each tube in a row of serial dilutions of the first antibiotic. The final concentration that resulted enabled the determination of the effect of both MIC/4 and MIC/8 of each substance in the presence of from approximately 32 MIC to [formula] of the other. Inocula were added as in the initial single MIC experiment.

The test system of experiment [2] is Klebsiella pneumoniae. On the procedure: as §1, §2
Experiment [3] has as its system Proteus vulgaris. On the procedure:
as §1, §2

As for `C[C@@H]1O[C@@H]1P(=O)(O)O` [Phosphonomycin, (-) (cis-1,2-epoxypropyl)phosphonic acid], the “Phosphonomycin MIC in presence of ≤ MIC/4 of 2nd substance” value in experiment [1] (2nd substance chlortetracycline) was determined as 48; in experiment [1] (2nd substance erythromycin), 192; in experiment [2] (2nd substance novobiocin), 5.8; in experiment [3] (2nd substance erythromycin) it was 96; in experiment [3] (2nd substance novobiocin), 6.8. For the same compound, the MIC in experiment [1] (Enterococcus faecalis, alone, read-out: Phosphonomycin MIC) worked out at 93.6 µg/mL; in experiment [2] (Klebsiella pneumoniae, alone, read-out: Phosphonomycin MIC), 750 µg/mL. Also, the “Phosphonomycin MIC” value in experiment [1] (alone, in µg/mL) was 96 and 48. The Phosphonomycin MIC in presence of 2nd substance in experiment [3] (2nd substance chlortetracycline, MIC/2 instead of ≤ MIC/4) is 24 µg/mL.

(Values after patent US3935309A, “Synergistic combinations of phosphonomycin and bacteriostatic agents” (Merck & Co., Inc., priority 1974, dated 1976).)
